Laboratory results reported in PubChem BioAssay (NCI).
Several values for one entry are separate records, joined by “and”; a condition that tells them apart may be missing. Equal entries are not always repeated.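 Step 1: Grow cells in 96-well plates. Step 2: Expose to compound for 48 hours at 5 concentrations. Step 3: Interpolate endpoints linearly; if unreached, use highest concentration. GI50 is the concentration that inhibits growth by half. TGI: total growth inhibition.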

Assays:
Assay in all cases: inhibition of tumour cell growth, NCI panel, 48 h
[1] = tested on: NCI-H522 lung
[2] = tested on: T-47D breast
[3] = tested on: A549 NSCLC
[4] = tested on: NCI/ADR-RES ovarian
[5] = tested on: HS 578T breast
[6] = tested on: HOP-62 NSCLC
[7] = tested on: ACHN renal
[8] = tested on: IGROV1 ovarian
[9] = tested on: U251 CNS
[10] = tested on: RXF 393 renal

Cc1cc2c(cc1Cl)SC1=NN(C)C(c3ccccc3O)N1S2(=O)=O (centres undefined)
GI50 [1]: > 100 µM
TGI [1]: > 100 µM
GI50 [2]: > 100 µM
TGI [2]: > 100 µM
GI50 [3]: 86.2 µM
TGI [3]: > 100 µM
GI50 [4]: 39 µM
TGI [4]: > 100 µM
GI50 [5]: > 100 µM
TGI [5]: > 100 µM
GI50 [6]: 88.5 µM
TGI [6]: > 100 µM
GI50 [7]: > 100 µM
TGI [7]: > 100 µM
GI50 [8]: 77.8 µM
TGI [8]: > 100 µM
GI50 [9]: 47.7 µM
TGI [9]: > 100 µM

Cn1cc(-c2nn3cc(-c4cccs4)nc3s2)c2cc(F)ccc21
GI50 [1]: 1.62 µM
TGI [1]: 24.5 µM
GI50 [3]: 2.85 µM
TGI [3]: 95.6 µM
GI50 [4]: 0.991 µM
TGI [4]: 19.1 µM
GI50 [5]: 2.34 µM
TGI [5]: 13.4 µM
GI50 [10]: 1.59 µM
TGI [10]: 5.73 µM
GI50 [6]: 1.92 µM
TGI [6]: 23.1 µM
GI50 [7]: 3.39 µM
TGI [7]: 86.8 µM
GI50 [8]: 1.93 µM
TGI [8]: > 100 µM
GI50 [9]: 2.76 µM
TGI [9]: 17.9 µM

COc1cc(C(=O)/C=C/c2c(C(F)(F)F)nc3sccn23)cc(OC)c1OC
GI50 [1]: 2.03 µM
TGI [1]: 4.91 µM
GI50 [2]: 2.12 µM
TGI [2]: 5.76 µM
GI50 [3]: 3.44 µM
TGI [3]: 18 µM
GI50 [10]: 2.02 µM
TGI [10]: 4.24 µM
GI50 [6]: 1.93 µM
TGI [6]: 3.92 µM
GI50 [7]: 1.82 µM
TGI [7]: 3.66 µM
GI50 [8]: 2.66 µM
TGI [8]: 61.4 µM
GI50 [9]: 1.38 µM
TGI [9]: 2.79 µM

COc1cc(C2c3cc4c(cc3[C@@H](Nc3cccc(O)c3)C3COC(=O)[C@H]23)OCO4)cc(OC)c1O (some centres undefined)
GI50 [1]: 0.571 µM
TGI [1]: 5.51 µM
TGI [2]: 53.2 µM
GI50 [3]: 0.579 µM
TGI [3]: 7.03 µM
TGI [4]: 21.5 µM
GI50 [10]: 0.418 µM
TGI [10]: 9.23 µM
GI50 [6]: 0.459 µM
TGI [6]: 4.24 µM
GI50 [7]: 0.356 µM
TGI [7]: 3.56 µM
TGI [8]: 30.4 µM
GI50 [9]: 0.732 µM
TGI [9]: 9.22 µM

Cc1cccc(CC(C)(C)C)c1NC(=O)C(=O)C(C(=O)c1ccc2ccccc2c1)C1OC(=O)c2ccccc21 (centres undefined)
TGI [1]: 26.7 µM
TGI [3]: 40.9 µM
TGI [10]: 14.5 µM
TGI [6]: 43.2 µM
TGI [7]: 56.2 µM
TGI [8]: 46.8 µM
TGI [9]: 17.8 µM

Cn1c(COC(=O)NCCN2CCOCC2)nc2c(N3CCOCC3)nc(-c3ccccc3)nc21
GI50 [1]: 0.424 µM
TGI [1]: 2.02 µM
GI50 [3]: 1.39 µM
TGI [3]: 3.73 µM
GI50 [4]: 1.93 µM
TGI [4]: 6.78 µM
GI50 [5]: 1.49 µM
TGI [5]: 5.38 µM
GI50 [10]: 0.797 µM
TGI [10]: 2.22 µM
GI50 [6]: 1.29 µM
TGI [6]: 3.3 µM
GI50 [7]: 0.936 µM
TGI [7]: 2.23 µM
GI50 [8]: 0.656 µM
TGI [8]: 2.15 µM
GI50 [9]: 1.37 µM
TGI [9]: 2.9 µM

CCCCCCCCCCCCCCCCCC1=NC(C)(C)CN1CCO
GI50 [1]: 1.55 µM
TGI [1]: 3.15 µM
GI50 [2]: 2.24 µM
TGI [2]: 5.61 µM
GI50 [4]: 3.16 µM
TGI [4]: 11.5 µM
GI50 [5]: 1.66 µM
TGI [5]: 3.93 µM
GI50 [6]: 1.82 µM
TGI [6]: 3.54 µM
GI50 [7]: 1.58 µM
TGI [7]: 2.99 µM
GI50 [8]: 1.56 µM
TGI [8]: 3.11 µM
GI50 [9]: 1.65 µM
TGI [9]: 3.01 µM

Cc1[nH]c(=O)nc(N/N=C/c2ccc(O)cc2)c1C(=O)Nc1ccc(Cl)cc1
TGI [1]: > 100 µM
TGI [3]: > 100 µM
TGI [6]: > 100 µM
TGI [7]: > 100 µM
TGI [8]: > 100 µM
TGI [9]: > 100 µM

COc1cc(CC(=O)c2ccc3c(c2)OCO3)cc(OC)c1OC
TGI [1]: > 100 µM
TGI [3]: > 100 µM
TGI [10]: > 100 µM
TGI [6]: > 100 µM
TGI [7]: > 100 µM
TGI [8]: > 100 µM
TGI [9]: > 100 µM

Cc1cccc(N2C(=O)/C(=C/c3ccc(N(CCC#N)CCC#N)cc3C)N=C2c2cc([N+](=O)[O-])ccc2Cl)c1
TGI [1]: > 100 µM
TGI [3]: > 100 µM
TGI [6]: > 100 µM
TGI [7]: > 100 µM
TGI [8]: > 100 µM
TGI [9]: > 100 µM

Cc1cc(N)c2ccccc2[n+]1CCCCCCCCCC[n+]1c(C)cc(N)c2ccccc21
GI50 [1]: 1.38 µM
TGI [1]: 4.01 µM and 4.43 µM
GI50 [2]: 0.0959 µM
GI50 [3]: 0.116 µM
TGI [3]: 6.88 µM and 50 µM
GI50 [4]: 5.42 µM and 13.2 µM
TGI [4]: > 38.5 µM and 48.5 µM and 42.9 µM
GI50 [5]: 0.303 µM
TGI [5]: > 19.2 µM and 29.6 µM
GI50 [6]: 0.201 µM
TGI [6]: 2.8 µM and 9.51 µM
TGI [7]: > 50 µM and 7.15 µM and 17.9 µM
GI50 [8]: 0.538 µM and 2.17 µM
GI50 [9]: 0.145 µM and 1.15 µM
TGI [9]: 1.05 µM and 1.94 µM and 6.52 µM

CCOC(=O)NNC(=O)NC12CC3CC(CC(C3)C1)C2
TGI [1]: > 100 µM
TGI [3]: > 100 µM
TGI [10]: > 100 µM
TGI [6]: > 100 µM
TGI [7]: > 100 µM
TGI [8]: > 100 µM
TGI [9]: > 100 µM
